Source: the NIST ThermoML archive (doi:10.1016/j.fluid.2005.06.010)

Test: xn = mol fraction of the nth substance listed
Conditions: Fluid (supercritical or subcritical phases), Vibrating tube method

c1ccc2ccccc2c1 [naphthalene] + O=C=O
Conditions	mass density [kg/m3]
327.98 K, 20991 kPa, x1 = 0.0276	810.47
327.98 K, 22012 kPa, x1 = 0.0276	819.85
327.98 K, 23092 kPa, x1 = 0.0276	829.12
327.98 K, 23996 kPa, x1 = 0.0276	836.33
327.98 K, 24882 kPa, x1 = 0.0276	843.08
327.99 K, 11253 kPa, x1 = 0.0049	476.13
327.99 K, 11541 kPa, x1 = 0.0049	502.2
327.99 K, 12000 kPa, x1 = 0.0049	538.29
327.99 K, 13016 kPa, x1 = 0.0049	598.5
327.99 K, 14020 kPa, x1 = 0.0049	639.93
327.99 K, 15009 kPa, x1 = 0.0049	671.01
327.99 K, 16051 kPa, x1 = 0.0049	696.96
327.99 K, 16996 kPa, x1 = 0.0049	716.42
327.99 K, 18024 kPa, x1 = 0.0049	734.62
327.99 K, 18955 kPa, x1 = 0.0394	812.97
327.99 K, 19015 kPa, x1 = 0.0049	750.05
327.99 K, 19491 kPa, x1 = 0.0394	818.42
327.99 K, 20015 kPa, x1 = 0.0394	823.07
327.99 K, 20048 kPa, x1 = 0.0049	764.24
327.99 K, 20960 kPa, x1 = 0.0394	831.55
327.99 K, 21025 kPa, x1 = 0.0049	776.39
327.99 K, 22010 kPa, x1 = 0.0394	840.78
327.99 K, 22049 kPa, x1 = 0.0049	788
327.99 K, 23023 kPa, x1 = 0.0049	798.13
327.99 K, 23040 kPa, x1 = 0.0394	848.69
327.99 K, 24009 kPa, x1 = 0.0394	855.98
327.99 K, 24079 kPa, x1 = 0.0049	808.33
327.99 K, 24881 kPa, x1 = 0.0394	861.95
328 K, 12017 kPa, x1 = 0.0093	567.42
328 K, 12517 kPa, x1 = 0.0093	596.95
328 K, 12987 kPa, x1 = 0.0173	652.9
328 K, 13018 kPa, x1 = 0.0144	638.84
328 K, 13022 kPa, x1 = 0.0093	621.23
328 K, 13497 kPa, x1 = 0.0144	656.68
328 K, 13513 kPa, x1 = 0.0173	670.93
328 K, 13916 kPa, x1 = 0.0235	697.69
328 K, 14000 kPa, x1 = 0.0144	672.81
328 K, 14016 kPa, x1 = 0.0173	685.86
328 K, 14033 kPa, x1 = 0.0093	659.25
328 K, 14510 kPa, x1 = 0.0235	712.23
328 K, 14988 kPa, x1 = 0.0235	722.58
328 K, 15031 kPa, x1 = 0.0173	710.98
328 K, 15041 kPa, x1 = 0.0093	688.02
328 K, 15044 kPa, x1 = 0.0144	700.6
328 K, 16003 kPa, x1 = 0.0235	741.93
328 K, 16024 kPa, x1 = 0.0093	710.6
328 K, 16029 kPa, x1 = 0.0173	731.18
328 K, 16033 kPa, x1 = 0.0144	721.87
328 K, 17009 kPa, x1 = 0.0144	739.63
328 K, 17031 kPa, x1 = 0.0093	730
328 K, 17033 kPa, x1 = 0.0173	748.41
328 K, 17036 kPa, x1 = 0.0235	758.59
328 K, 18019 kPa, x1 = 0.0235	772.44
328 K, 18021 kPa, x1 = 0.0144	755.54
328 K, 18047 kPa, x1 = 0.0173	763.56
328 K, 18057 kPa, x1 = 0.0093	747.01
328 K, 19027 kPa, x1 = 0.0235	785.16
328 K, 19029 kPa, x1 = 0.0173	776.56
328 K, 19034 kPa, x1 = 0.0144	769.62
328 K, 19042 kPa, x1 = 0.0093	761.34
328 K, 20006 kPa, x1 = 0.0093	774.02
328 K, 20013 kPa, x1 = 0.0173	788.3
328 K, 20015 kPa, x1 = 0.0235	796.35
328 K, 20048 kPa, x1 = 0.0144	782.23
328 K, 21013 kPa, x1 = 0.0093	785.89
328 K, 21023 kPa, x1 = 0.0235	806.8
328 K, 21036 kPa, x1 = 0.0173	799.42
328 K, 21043 kPa, x1 = 0.0144	793.46
328 K, 22023 kPa, x1 = 0.0235	816.35
328 K, 22030 kPa, x1 = 0.0144	803.66
328 K, 22034 kPa, x1 = 0.0093	796.9
328 K, 22064 kPa, x1 = 0.0173	809.6
328 K, 23029 kPa, x1 = 0.0173	818.53
328 K, 23041 kPa, x1 = 0.0235	825.35
328 K, 23052 kPa, x1 = 0.0093	807.08
328 K, 23065 kPa, x1 = 0.0144	813.57
328 K, 24012 kPa, x1 = 0.0144	821.99
328 K, 24037 kPa, x1 = 0.0235	833.62
328 K, 24065 kPa, x1 = 0.0093	816.43
328 K, 24082 kPa, x1 = 0.0173	827.53
328 K, 24770 kPa, x1 = 0.0144	828.36
328 K, 24838 kPa, x1 = 0.0173	833.72
328 K, 25066 kPa, x1 = 0.0235	841.58
328 K, 25067 kPa, x1 = 0.0093	825.06
328.08 K, 11635 kPa, x1 = 0.0065	518.62
